Substitutions are numbered along the chain they refer to. Structures can show the parent of a compound that is named as a salt. Where two headings read alike, the source gives them in different places.
What was measured:
[1] = biological target: T1, histamine receptor, H1 (Bos taurus, UniProt P30546); experiment: H1 binding assay, displacement of [3H]Pyrilamine, bovine cerebellar membranes
T1 construct: from tissue; host or cells: bovine cerebellar membranes (per earlier reading)

[2] = biological target: T2, cloned muscarinic - M1 binding site (Homo sapiens, UniProt P11229); experiment: Muscarinic M1 binding assay, [3H]-Scopolamine N-Methyl Chloride, human recombinant expressed in CHO cells
T2 construct: expressed in transfected cells; host or cells: CHO cells
T2 sequence (P11229 1-460): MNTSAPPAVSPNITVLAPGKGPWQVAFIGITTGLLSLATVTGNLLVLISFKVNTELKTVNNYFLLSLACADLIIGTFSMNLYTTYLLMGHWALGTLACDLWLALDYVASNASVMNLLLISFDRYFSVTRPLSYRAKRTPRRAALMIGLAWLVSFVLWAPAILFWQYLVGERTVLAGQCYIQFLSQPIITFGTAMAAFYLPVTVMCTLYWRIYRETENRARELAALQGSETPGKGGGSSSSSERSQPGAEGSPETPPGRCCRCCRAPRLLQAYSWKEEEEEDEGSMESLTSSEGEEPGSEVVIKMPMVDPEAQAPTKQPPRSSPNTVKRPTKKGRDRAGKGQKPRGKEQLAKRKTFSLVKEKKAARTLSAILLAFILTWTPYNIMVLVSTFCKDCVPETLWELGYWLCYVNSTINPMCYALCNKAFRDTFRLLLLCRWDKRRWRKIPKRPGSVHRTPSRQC

[3] = biological target: T3, cloned muscarinic - M2 binding site (Homo sapiens, UniProt P08172); experiment: Muscarinic M2 binding assay, [3H]-Scopolamine N-Methyl Chloride, human recombinant expressed in CHO cells
T3 construct: expressed in transfected cells; host or cells: CHO cells
T3 sequence (P08172 1-466): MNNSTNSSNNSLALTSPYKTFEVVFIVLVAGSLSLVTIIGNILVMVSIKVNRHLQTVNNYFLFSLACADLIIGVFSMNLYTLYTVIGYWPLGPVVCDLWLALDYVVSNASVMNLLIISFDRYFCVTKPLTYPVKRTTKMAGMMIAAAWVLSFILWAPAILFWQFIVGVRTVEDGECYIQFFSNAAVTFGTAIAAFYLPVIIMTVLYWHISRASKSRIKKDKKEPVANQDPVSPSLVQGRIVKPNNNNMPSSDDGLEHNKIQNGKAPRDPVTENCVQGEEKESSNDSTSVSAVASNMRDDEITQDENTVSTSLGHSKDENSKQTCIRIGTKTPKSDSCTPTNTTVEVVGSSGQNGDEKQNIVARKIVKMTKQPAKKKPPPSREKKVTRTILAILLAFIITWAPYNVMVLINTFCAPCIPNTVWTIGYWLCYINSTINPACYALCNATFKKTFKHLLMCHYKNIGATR

[4] = biological target: T4, cloned muscarinic - M3 binding site (Homo sapiens, UniProt P20309); experiment: Muscarinic M3 binding assay, [3H]-Scopolamine N-Methyl Chloride, human recombinant expressed in CHO cells
T4 construct: expressed in transfected cells; host or cells: CHO cells
T4 sequence (P20309 whole entry): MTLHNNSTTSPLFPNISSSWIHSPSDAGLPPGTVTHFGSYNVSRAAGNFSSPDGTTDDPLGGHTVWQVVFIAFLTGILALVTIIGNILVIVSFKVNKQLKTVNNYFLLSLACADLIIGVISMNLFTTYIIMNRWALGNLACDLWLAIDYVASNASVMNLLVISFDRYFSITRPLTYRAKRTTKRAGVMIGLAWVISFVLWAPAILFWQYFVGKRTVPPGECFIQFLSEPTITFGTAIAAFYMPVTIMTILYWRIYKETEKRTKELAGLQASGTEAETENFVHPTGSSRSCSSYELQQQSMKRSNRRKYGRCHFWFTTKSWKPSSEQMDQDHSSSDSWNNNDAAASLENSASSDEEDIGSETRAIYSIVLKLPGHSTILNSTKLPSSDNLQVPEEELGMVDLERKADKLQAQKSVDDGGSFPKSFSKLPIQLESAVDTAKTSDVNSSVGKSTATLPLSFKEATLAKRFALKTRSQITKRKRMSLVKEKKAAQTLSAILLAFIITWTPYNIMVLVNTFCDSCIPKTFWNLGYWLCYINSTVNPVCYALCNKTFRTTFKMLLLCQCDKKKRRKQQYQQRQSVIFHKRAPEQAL

[5] = biological target: T5, muscarinic1 binding site (Bos taurus, UniProt F1N5C5); experiment: biochemical
T5 sequence (F1N5C5 1-460): T2 sequence (P11229 1-460) with T206A, A265T, T315A, K331R, D335E

[6] = test system: Male Wistar rats; experiment: Sleep-wakefulness, locomotor activity and body temperature monitoring (SCORE-2000) in rats
[7] = Series 11 compounds, Table 5, unit inferred
[8] = Series 11 compounds, Table 5, unit inferred, read-out: H1 Ki
[9] = Series 11 compounds, Table 5, unit inferred, receptor source not given
[10] = Series 11 compounds, Table 5, unit inferred, receptor source not given, read-out: M1 Ki
[11] = Series 11 compounds, Table 5, unit inferred, receptor source not given, read-out: M2 Ki
[12] = Series 11 compounds, Table 5, unit inferred, receptor source not given, read-out: M3 Ki
[13] = Table 6, read-out: Receptor Binding Data (Ki nM) H1
[14] = Table 6, human recombinant, read-out: Receptor Binding Data (Ki nM) M1
[15] = Table 6, human recombinant, read-out: Receptor Binding Data (Ki nM) M2
[16] = Table 6, human recombinant, read-out: Receptor Binding Data (Ki nM) M3

T1 sequence (P30546 whole entry): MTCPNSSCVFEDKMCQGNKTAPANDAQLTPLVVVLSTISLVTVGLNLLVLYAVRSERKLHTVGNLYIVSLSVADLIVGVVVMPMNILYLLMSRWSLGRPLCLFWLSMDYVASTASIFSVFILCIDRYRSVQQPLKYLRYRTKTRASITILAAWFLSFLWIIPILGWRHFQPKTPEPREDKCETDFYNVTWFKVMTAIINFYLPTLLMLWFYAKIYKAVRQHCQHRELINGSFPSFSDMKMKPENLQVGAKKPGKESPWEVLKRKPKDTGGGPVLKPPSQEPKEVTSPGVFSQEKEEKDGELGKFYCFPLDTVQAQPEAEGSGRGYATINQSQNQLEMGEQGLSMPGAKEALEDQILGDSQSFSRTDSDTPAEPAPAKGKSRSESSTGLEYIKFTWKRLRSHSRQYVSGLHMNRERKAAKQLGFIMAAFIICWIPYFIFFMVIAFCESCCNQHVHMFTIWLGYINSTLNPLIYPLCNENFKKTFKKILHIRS

With `CN(C)CCCSC(=N)N` [Dimaprit, reference compound] as the compound, how does the Ki ([1]; reference compounds, bovine cerebellar membranes, [3H]Pyrilamine 2.0 nM, read-out: Ki) read?
The Ki was over 10000 nM.

For `O=C(CCN1CCC(=C(c2ccccc2)c2ccccc2)CC1)OC1CCOC1` (stereo not drawn) [Compound 11h], which IC50 [1, 7] is on record?
The IC50 was 201 nM.

What about the Ki [1, 8] of the same compound?
The Ki was 88.3 nM.

And the IC50 [2, 9]?
Its IC50 is 2240 nM.

And the Ki [2, 10]?
Its Ki is 172 nM.

And the IC50 [3, 9]?
The IC50 was 2140 nM.

And the Ki [3, 11]?
The Ki was 697 nM.

What about the IC50 [4, 9] of the same compound?
Its IC50 is 2200 nM.

And the Ki [4, 12]?
Its Ki is 603 nM.

Which Ki [1, 13] does the source give for `CC(C)OC(=O)CN1CCC(=C2c3ccccc3COc3ccccc32)CC1` [dox7d-oxalate] here?
The Ki was 198 nM.

What about the Ki [2, 14] of the same compound?
The Ki was over 10000 nM.

And the Ki [3, 15]?
Its Ki is over 10000 nM.

What about the Ki [4, 16] of the same compound?
The Ki was over 10000 nM.

Which Ki [1, 8] does the source give for `CC(C)OC(=O)CCN1CCC(=C(c2ccccc2)c2ccccc2)CC1` [Compound 11d, Isopropyl 3-[4-(diphenylmethylidene)piperidin-1-yl]propanoate] here?
Its Ki is 147 nM.

And the IC50 [2, 9]?
Its IC50 is 8000 nM.

What about the Ki [2, 10] of the same compound?
The Ki was 696 nM.

And the IC50 [3, 9]?
The IC50 was 829 nM.

And the Ki [3, 11]?
Its Ki is 270 nM.

And the IC50 [4, 9]?
Its IC50 is 6080 nM.

What about the Ki [4, 12] of the same compound?
The Ki was 2700 nM.

How did the Ki [5] turn out when `CN1[C@@H]2CC[C@H]1C[C@@H](OC(=O)C(CO)c1ccccc1)C2` (stereo partly drawn) [Atropine] was run?
The Ki was 0.4 nM.

Which Ki [1, 8] does the source give for `O=C(O)CCN1CCC(=C(c2ccccc2)c2ccccc2)CC1` [Compound 11a] here?
The Ki was 119 nM.

And the IC50 [2, 9]?
The IC50 was over 10000 nM.

What about the Ki [2, 10] of the same compound?
The Ki was over 10000 nM.

And the IC50 [3, 9]?
The IC50 was over 10000 nM.

What about the Ki [3, 11] of the same compound?
The Ki was over 10000 nM.

And the IC50 [4, 9]?
Its IC50 is over 10000 nM.

What about the Ki [4, 12] of the same compound?
Its Ki is over 10000 nM.

How did the “Motor Inhibition” value ([6]; 30 mg/kg IP, at CT-18, rats) turn out when `Cc1ccc(-c2nc3ccc(C)cn3c2CC(=O)N(C)C)cc1` [Ambien, Zolpidem, reference compound] was run?
Its value is “YES”.

What about the “REM Inhibition” value ([6]; 30 mg/kg IP, at CT-18, rats) of the same compound?
Its value is “YES”.

And the “Rebound Insomnia” value ([6]; 30 mg/kg IP, at CT-18, rats)?
The value was “YES”.

`Cc1scc2c1N(C(=O)CN1CCN(C)CC1)c1ccccc1NC2=O` [Telenzepine] was tested. Which Ki [5] did it give?
The Ki was 64.5 nM.

`CC(C)(CCN1CCC(=C2c3ccccc3COc3ccccc32)CC1)C(=O)O` [Compound 75a] was tested. Which Ki [1, 13] did it give?
Its Ki is 47.9 nM.

And the Ki [2, 14]?
Its Ki is over 10000 nM.

What about the Ki [3, 15] of the same compound?
The Ki was 3330 nM.

What about the Ki [4, 16] of the same compound?
Its Ki is over 10000 nM.

`O=C(O)CCN1CCC(=C2c3ccccc3COc3ccccc32)CC1` [Compound 8a] was tested. Which Ki [1, 13] did it give?
The Ki was 62.5 nM.

What about the Ki [2, 14] of the same compound?
The Ki was over 10000 nM.

And the Ki [3, 15]?
The Ki was over 10000 nM.

And the Ki [4, 16]?
Its Ki is over 10000 nM.

`O=C(O)CCN1CCC(OC(c2ccccc2)c2ccccc2)CC1` [Compound 6a, 3-[4-(dipbenylmethoxy)piperidin-1-yl]propanoic acid hydrochloride] was tested. Which Ki [1, 13] did it give?
The Ki was 56.1 nM.

What about the Ki [2, 14] of the same compound?
Its Ki is over 10000 nM.

What about the Ki [3, 15] of the same compound?
Its Ki is over 10000 nM.

What about the Ki [4, 16] of the same compound?
Its Ki is 8900 nM.

What does the source list for `O=C(O)CCCN1CCC(OC(c2ccccc2)c2ccccc2)CC1` [Compound 53a]?
Ki [1, 13]: 16.1 nM; Ki [2, 14]: > 10000 nM; Ki [3, 15]: > 10000 nM; Ki [4, 16]: > 10000 nM

For `O=C(CCN1CCC(=C(c2ccccc2)c2ccccc2)CC1)O[C@H]1CCOC1` [Compound 11g], which IC50 [1, 7] is on record?
Its IC50 is 196 nM.

What about the Ki [1, 8] of the same compound?
Its Ki is 86.1 nM.

`CC(C)(CN1CCC(=C2c3ccccc3COc3ccccc32)CC1)C(=O)O` [Compound 74a] was tested. Which Ki [1, 13] did it give?
Its Ki is 109 nM.

And the Ki [2, 14]?
The Ki was over 10000 nM.

What about the Ki [3, 15] of the same compound?
The Ki was over 10000 nM.

And the Ki [4, 16]?
Its Ki is over 10000 nM.

Which Ki [1, 13] does the source give for `O=C(O)CN1CCC(=C2c3ccccc3COc3ccccc32)CC1` [Compound 7a] here?
Its Ki is 55.1 nM.

How did the Ki [1, 8] turn out when `O=C(CCN1CCC(=C(c2ccccc2)c2ccccc2)CC1)OC1CCCC1.O=C(O)C(=O)O` [Compound 11f, Cyclopentyl 3-[4-(diphenylmethylidene)piperidin-1-yl]propanoate, oxalic acid salt] was run?
The Ki was 416 nM.

What about the IC50 [2, 9] of the same compound?
The IC50 was 2210 nM.

What about the Ki [2, 10] of the same compound?
Its Ki is 170 nM.

And the “cumulative effect on total sleep time (TST) during the initial 5 hours post-treatment, relative to baseline” value ([6]; 11f 30 mg/kg versus Zolpidem 10 mg/kg, rats, FIG. 1(b))?
The value was “induced more TST than Zolpidem”.

What about the locomotor activity ([6]; male Wistar rats, IP at CT-18, 10 and 30 mg/kg) of the same compound?
The locomotor activity was “reduction in locomotor activity”.

And the “sleep continuity, as assessed by sleep bout length” value ([6]; male Wistar rats, IP at CT-18, 10 and 30 mg/kg, relative to vehicle control)?
The value was “increased sleep continuity”.

And the total sleep time ([6]; male Wistar rats, IP at CT-18, both 30 mg/kg and 10 mg/kg)?
The total sleep time was “significantly increased total sleep time for 3 hours post-treatment”.

What about the “soporific effects (nonREM sleep time, sleep continuity)” value ([6]; male Wistar rats, intraperitoneal bolus at CT-18, 11f 30 and 10 mg/kg, 6f and 15f 30 mg/kg) of the same compound?
The value was “robust soporific effects”.

Which IC50 [1, 7] does the source give for `O=C(CCN1CCC(=C(c2ccccc2)c2ccccc2)CC1)OC1CCOCC1` [Compound 11i] here?
The IC50 was 200 nM.

And the Ki [1, 8]?
The Ki was 87.8 nM.

What about the IC50 [2, 9] of the same compound?
Its IC50 is 221 nM.

And the Ki [2, 10]?
The Ki was 17 nM.

What about the IC50 [3, 9] of the same compound?
Its IC50 is 221 nM.

And the Ki [3, 11]?
Its Ki is 72 nM.

What about the IC50 [4, 9] of the same compound?
The IC50 was 2330 nM.

What about the Ki [4, 12] of the same compound?
The Ki was 1030 nM.

How did the Ki [2, 14] turn out when `Cc1ccc(/C(=C\CN2CCCC2)c2cccc(C(=O)O)n2)cc1` [Compound 16a] was run?
Its Ki is over 10000 nM.

And the Ki [3]?
The Ki was over 10000 nM.

What about the Ki [4, 16] of the same compound?
Its Ki is over 10000 nM.

For `O=C(O)CCCN1CCC(=C2c3ccccc3COc3ccccc32)CC1` [Compound 73a], which Ki [1, 13] is on record?
Its Ki is 42.8 nM.

And the Ki [2, 14]?
The Ki was over 10000 nM.

What about the Ki [3, 15] of the same compound?
Its Ki is over 10000 nM.

What about the Ki [4, 16] of the same compound?
Its Ki is over 10000 nM.

What does the source list for `COc1ccccc1CNCCCCCCNCCCCCCCCNCCCCCCNCc1ccccc1OC` [Methoctramine, reference compound]?
Ki [2]: 29.7 nM; Ki ([4]; reference compounds, M3 human recombinant in CHO cells, read-out: Ki): 700 nM

Which Ki [1, 8] does the source give for `CC(C)COC(=O)CCN1CCC(=C(c2ccccc2)c2ccccc2)CC1` [Compound 11e, Isobutyl 3-[4-(diphenylmethylidene)piperidin-1-yl]propanoate] here?
Its Ki is 279 nM.

And the IC50 [2, 9]?
The IC50 was 3760 nM.

And the Ki [2, 10]?
Its Ki is 289 nM.

What about the IC50 [3, 9] of the same compound?
The IC50 was 3550 nM.

And the Ki [3, 11]?
The Ki was 1150 nM.

What about the IC50 [4, 9] of the same compound?
Its IC50 is 2590 nM.

What about the Ki [4, 12] of the same compound?
Its Ki is 710 nM.

Source: patent US20040142972A1, “CNS target modulators” (Hypnion, Inc., priority 2001, published 2004)
